Here are results for 16 compounds from ChEMBL document CHEMBL3045043, “Synthesis, chemical characterization of novel 1,3-dimethyl acridones as cytotoxic agents, and their DNA-binding studies” (Med Chem Res, 2010).

Experiment [1] deals with DNA. The experiment is described as follows: Binding affinity to Bos taurus (calf) thymus DNA assessed as hypochromicity at 15 uM by spectrophotmetry analysis. In kind it is nucleic-acid assay.
For experiment [2], the system named is HL-60. The experiment can be described thus: Cytotoxicity against Homo sapiens (human) HL60 cells after 48 hr by trypan blue assay. In kind it is functional, cell-based. As to conditions: HL-60, 48 h.
The subject of experiment [3] is MCF7. The experiment can be described thus: Cytotoxicity against Homo sapiens (human) MCF7 cells after 48 hr by trypan blue assay. In kind it is functional, cell-based. As to conditions: MCF7, 48 h.

For the compound `Cc1cc(C)c2c(=O)c3ccccc3n(CCCCN3CCCCC3)c2c1`, the Activity in experiment [1] was determined as 50%. The IC50 in experiment [2] was 1.41 µM; in experiment [3], 6.67 µM.
For `CCN(CC)CCCn1c2ccccc2c(=O)c2c(C)cc(C)cc21`, in that order: 40%, 1.65 µM and 11.2 µM.
As for `Cc1cc(C)c2c(=O)c3ccccc3n(CCCCl)c2c1`, the IC50 in experiment [2] worked out at 16.4 µM; in experiment [3], 54.4 µM.
On to `Cc1cc(C)c2c(=O)c3ccccc3n(CCCN3CCN(CCO)CC3)c2c1`, for which the Activity in experiment [1] turned out to be 52%. For the same compound, the IC50 in experiment [2] was 10.9 µM; in experiment [3], 7.87 µM.
For `Cc1cc(C)c2c(=O)c3ccccc3n(CCCN3CCN(C)CC3)c2c1`, in that order: 48%, 15.4 µM and 28.5 µM.
Take `CCN(CC)CCCCn1c2ccccc2c(=O)c2c(C)cc(C)cc21`: the Activity in experiment [1] is 52%. Further, the IC50 worked out at 0.45 µM in experiment [2] and 7.98 µM in experiment [3].
For `Cc1cc(C)c2c(=O)c3ccccc3n(CCCN3CCCC3)c2c1`, the IC50 came to 14.6 µM in experiment [2] and 19.7 µM in experiment [3].
Regarding `Cc1cc(C)c2c(=O)c3ccccc3n(CCCCN3CCOCC3)c2c1`, the Activity in experiment [1] stood at 35%. For the same compound, the IC50 in experiment [2] is 0.51 µM; in experiment [3] it was 8.45 µM.
For the compound `Cc1cc(C)c2c(=O)c3ccccc3n(CCCCCl)c2c1`, the IC50 in experiment [2] was found to be 14.2 µM; in experiment [3], 34.4 µM.
For `Cc1cc(C)c2c(=O)c3ccccc3[nH]c2c1`, in that order: 20 µM and 78.9 µM.
For `Cc1cc(C)c2c(=O)c3ccccc3n(CCCN3CCOCC3)c2c1`, the Activity in experiment [1] was found to be 13%. Further, the IC50 came to 13.7 µM in experiment [2] and 43.9 µM in experiment [3].
As for `O=P1(N(CCCl)CCCl)NCCCO1` (stereo unspecified) [CYCLOPHOSPHAMIDE ANHYDROUS], the IC50 in experiment [3] is 0.16 µM.
Turning to `Cc1cc(C)c2c(=O)c3ccccc3n(CCCCN3CCN(CCO)CC3)c2c1`, the Activity in experiment [1] was 53%. Further, the IC50 amounted to 11 µM in experiment [2] and 4 µM in experiment [3].
With `Cc1cc(C)c2c(=O)c3ccccc3n(CCCN3CCCCC3)c2c1`, the IC50 was found to be 14.1 µM in experiment [2] and 34.6 µM in experiment [3].
For `Cc1cc(C)c2c(=O)c3ccccc3n(CCCCN3CCN(C)CC3)c2c1`, the Activity in experiment [1] came to 51%. The half-maximal inhibitory concentration (IC50) in experiment [2] was 1.74 µM; in experiment [3], 8.96 µM.
With `Cc1cc(C)c2c(=O)c3ccccc3n(CCCCN3CCCC3)c2c1`, the Activity in experiment [1] was found to be 29%. Also, the IC50 in experiment [2] was determined as 14.1 µM; in experiment [3], 4.56 µM.

What is called IC50 is the concentration that inhibits the measured activity by half. A lower IC50 goes with higher potency.
